Source: patent US11654136B2, “Phosphoinositide 3-kinase inhibitor with a zinc binding moiety” (Curis, Inc., priority 2011, dated 2023)

Tests used:
MM1R subcutaneous tumor = test: MM1R xenograft model; format: in vivo, SCID/Beige mice; settings: oral gavage five times per week
Method: Female SCID/Beige mice at age 4 weeks were housed in ventilated micro-isolator cages (INNOCAGE®IVC, Innovive Inc., San Diego, Calif.) in a controlled climate, fed with sterile high-fat diet (Problab-RMH 2000) ad libitum and provided with sterilized water. All housing and supplies for SCID/Beige mice were sterilized by autoclaving before use. Mice were inspected daily including weekends/holidays by trained animal facility personnel and investigators. All animal procedures were performed under sterile conditions within a biosafety cabinet (for injections) or laminar flow hood (for animal husbandry and non-invasive procedures).
MM1R human MM cells were originally obtained from peripheral blood of a multiple myeloma patient (Goldman-Leikin R E, et al., J Lab Clin Invest. 1980, 13:335-345). Cryopreserved cells were thawed in a 37° C. water bath and cultured in RPMI medium plus 10% Fetal Bovine Serum (FBS) in a tissue culture incubator at 5% CO2. Cells were sent to outside vendors for contaminants and rodent pathogen screening intended to rule out contamination by mycoplasma (by PCR) and/or virus (by MAP test, Mouse Antibody Production). When the cells in culture were enough for implantation, they washed with serum free Hank's balanced salt solution (HBSS). Finally the cells were diluted in HBSS for implantation. […] The implanted mice were monitored for general health and tumor development daily.
Tumors were detectable about two weeks following implantation. Tumor size was measured with a caliper. […]
During each animal study, tumors were measured with calipers, tumor size determined using the above mentioned formula, and tumor size changes in percentage calculated. Mouse body weights were measured with a scale twice per week. […] T/C values were calculated using the following formula: % T/C=100×ΔT/ΔC if ΔT>0. […]
The treatment period was 18 days. Tumor sizes and body weights were measured again on the last day of the study.

[1] = Pharmacokinetics in nude mice bearing H2122 tumors; format: in vivo; settings: PO 50 mg/kg; for Cmax / bioavailability: mouse
Method: Nude mice bearing H2122 (human non-small cell lung cancer cell line) xenograft tumors were used for pharmacokinetics studies. […] At various time points following compound administration, three mice per time point were euthanized with CO2, and blood and tumor tissues were collected. Blood was collected into tubes containing sodium heparin. The plasma was separated via centrifugation. Plasma and tissues were stored at −80° C. for later analysis. A PE Sciex API-3000 LC-MS/MS system (Applied Biosystems, Inc., Foster City, Calif.) was used to analyze compound concentrations in plasma and tumor tissues.

[2] = test system: Daudi (non-Hodgkin's lymphoma cell line) xenograft tumors; test: Daudi xenograft tumor model; format: in vivo
Method: (§1) SU-DHL4 (diffuse large B-cell lymphoma cell line), H2122 (human NSCLC cell line), Daudi (non-Hodgkin's lymphoma cell line), and OPM2 (multiple myeloma tumor cell line) cells were implanted into either nude or Scid (severe […] immune-deficient) mice. […]. […] The control groups were treated with vehicle using the same dosing schedule as the corresponding active group.
(§2) In another study, the Daudi tumor group was dosed at 50 mg/Kg twice a day for five days per week. […] The SU-DHL4 tumor group was dosed at 100 mg/Kg orally or 50 mg/Kg intravenously.
(§3) Tumors were measured during the study period with an electronic caliper, and body weights were measured twice a week. The following formula was used to calculate the tumor volume: […] Percentage of tumor volume change was used to describe compound activity over the treatment period.

[3] = Daudi xenograft tumor model; format: in vivo; settings: Scid, mouse, in vivo; oral; Daudi model; read-out: maximum tolerated dose (MTD)
Method: as §1, §2, §3

[4] = test system: H2122 (human NSCLC cell line) xenograft tumors; test: H2122 xenograft tumor model; format: in vivo, nude mice
Method: as §1, §2, §3

[5] = test system: SU-DHL4 (diffuse large B-cell lymphoma cell line) xenograft tumors; test: SU-DHL4 xenograft tumor model; format: in vivo, nude mice
Method: as §1, §2, §3

[6] = test system: HDACs (HeLa cell nuclear extracts); test: HDAC activity assay (Biomol Color de Lys); format: biochemical
Method: HDAC inhibitory activity was assessed using the Biomol Color de Lys system (AK-500, Biomol, Plymouth Meeting, Pa.). Briefly, HeLa cell nuclear extracts were used as a source of HDACs. Different concentrations of test compounds were serially diluted in dimethylsulfoxide (DMSO) and added to HeLa cell nuclear extracts in the presence of a colorimetric artificial substrate. Final assay condition contained 50 mM Tris/C1, pH 8.0, 137 mM NaCl, 2.7 mM KCl and 1 mM MgCl2. Reactions were carried in room temperature (25° C.) for 1 hour before addition of developer for termination. Relative enzyme activity was measured in the WALLAC Victor II 1420 microplate reader as fluorescence intensity (excitation: 350-380 nm; emission: 440-460 nm). Data were analyzed using GraphPad Prism (v4.0a) with a sigmoidal dose response curve fitting for IC50 calculation.

[7] = test system: OPM2 (multiple myeloma tumor cell line) xenograft tumors; test: OPM2 xenograft tumor model; format: in vivo, nude mice; settings: oral 50 mg/kg twice a day, five days per week
Method: as §1, §2, §3

[8] = test system: p-STAT3 (Y-705) and p-Src; test: Western blot in RPMI-8226 myeloma cells; format: cell-based; settings: 1 μM, 16 h
[9] = Plasma, H2122 tumor-bearing nude mice

With `COc1ccc(-c2nc(N3CCOCC3)c3sc(CN(C)c4ncc(C(=O)NO)cn4)cc3n2)cn1` [Compound 1, N-hydroxy-2-(((2-(6-methoxypyridin-3-yl)-4-morpholinothieno[3,2-d]pyrimidin-6-yl)methyl)(methyl)amino)pyrimidine-5-carboxamide] the T/C value (MM1R subcutaneous tumor; day-17, p<0.0001) was 21.15%, the “Body weight and side effects” value (MM1R subcutaneous tumor; single agent, 18 days) was “No body weight loss or other side effects were observed” and the Tumor growth (MM1R subcutaneous tumor; single agent, 18 days) was “inhibited tumor growth”. The “Distribution between plasma and tumor tissue” value [1] was “preferentially accumulates in tumor tissue”, the “Area under the Curve” value [1, 9] was 478 ng/mL * hr and the Half-life [1, 9] was 5.9 h. For the same compound, the “Area under the Curve” value ([1]; Tumor) was 2126 ng/mL * hr, the Half-life ([1]; Tumor) was 10.1 h and the Cmax ([1]; Tumor) was 154 ng/mL. For the same compound, the bioavailability ([1]; Tumor) was 14.8%, the Cmax [1, 9] was 186 ng/mL and the bioavailability [1, 9] was 7.8%. For the same compound, the Tumor growth ([2]; oral 50 mg/Kg twice a day, five days per week) was “efficacious”, the “Antitumor activity compared with GDC-0941, vorinostat and their combination” value ([2]; oral 100 mg/Kg, each treatment at its MTD) was “more efficacious than vorinostat, GDC-0941, or a combination of both” and the “Tumor growth versus dose” value ([2]; oral 25, 50 or 100 mg/Kg five day per week) was “inhibited Daudi tumor growth in a dose-dependent manner”. The MTD [3] was 100 mg/kg, the Body weight ([4]; oral 75 mg/Kg twice a day, H2122 tumor-bearing nude mice) was “body weight loss” and the Tumor growth ([4]; oral 75 mg/kg twice a day, then 50 mg/Kg twice a day from Day-11, five days per week) was “efficacious”. The Tumor growth ([5]; intravenous (IV) 50 mg/kg) was “strongly inhibited tumor growth”, the Tumor growth ([5]; orally (PO) 100 mg/kg) was “strongly inhibited tumor growth” and the IC50 [6] was less than 100 nM. The Tumor growth [7] was “efficacious” and the “p-STAT3 (Y-705) and p-Src” value [8] was “inhibited p-STAT3 (Y-705) and p-Src”.
